Activity calls are given as the source filed them. The rule behind the calls is not given here.

One molecule from ChEMBL document CHEMBL3879901, “Substituted isoquinolin-1(2H)-ones, and methods of use thereof” (2012) can be followed below.

The subject of series [1] is Rattus norvegicus. Kind of series: Antiarthritic activity in type 2 collagen-induced Lewis rat arthritis model assessed as reduction in serum anti-type 2 collagen levels at 60 mg/kg, po administered every 12 hrs for 16 days measured on day 17 of post last dose by ELISA relative to control. The series is classed as functional. More on the design: scale not given: the % may be the effect or the level left. In general terms: In an ELISA, binding on a coated surface is turned into a signal by an enzyme label.

The subject of series [2] is Mus musculus. Kind of series: Reduction of TNP-Ficoll-induced T cell independent B cell activation in BDA-1 mouse assessed as decrease in IgG3 levels in serum at 3 mg/kg, po bid administered for 7 days by ELISA relative to control. The series is classed as functional.
The test system of series [3] is Mus musculus. In words: Reduction of TNP-Ficoll-induced T cell independent B cell activation in BDA-1 mouse assessed as decrease in IgG3 levels in serum at 1 mg/kg, po bid administered for 7 days by ELISA relative to control. The series is classed as functional.
In series [4] the test system is Rattus norvegicus. In words: Antiarthritic activity in type 2 collagen-induced Lewis rat arthritis model assessed as reduction in serum anti-type 2 collagen levels at 10 mg/kg, po administered every 12 hrs for 16 days measured on day 17 of post last dose by ELISA relative to control. The series is classed as functional. More on the design: scale not given: the % may be the effect or the level left.

Series [5] has as its system Rattus norvegicus. Kind of series: Antiarthritic activity in type 2 collagen-induced Lewis rat arthritis model assessed as reduction in serum anti-type 2 collagen levels at 30 mg/kg, po administered every 12 hrs for 16 days measured on day 17 of post last dose by ELISA relative to control. More on the design: scale not given: the % may be the effect or the level left. The series is classed as functional.

The test system of series [6] is Mus musculus. In words: Reduction of TNP-Ficoll-induced T cell independent B cell activation in BDA-1 mouse assessed as decrease in IgG3 levels in serum at 10 mg/kg, po bid administered for 7 days by ELISA relative to control. The series is classed as functional.
For series [7], the system named is Rattus norvegicus. Kind of series: Antiarthritic activity in type 2 collagen-induced po dosed Lewis rat arthritis model assessed as reduction in knee pannus administered every 12 hrs for 16 days measured on day 17 of post last dose by toluidine blue staining-based assay. The series is classed as functional, organism-based.
In series [8] the test system is Rattus norvegicus. In words: Antiarthritic activity in type 2 collagen-induced Lewis rat arthritis model assessed as reduction in ankle diameter at 10 to 60 mg/kg, po administered every 12 hrs for 16 days measured on day 9 of compound dosing to day 17 of post last dose relative to vehicle-treated control. The series is classed as functional, organism-based.
Series [9] relates to Rattus norvegicus. Kind of series: Antiarthritic activity in type 2 collagen-induced Lewis rat arthritis model assessed as reduction in ankle pannus at 60 mg/kg, po administered every 12 hrs for 16 days measured on day 17 of post last dose by toluidine blue staining-based assay. The series is classed as functional, organism-based.
Series [10] concerns Rattus norvegicus. In words: Antiarthritic activity in type 2 collagen-induced Lewis rat arthritis model assessed as reduction in ankle diameter at 10 to 60 mg/kg, po bid administered for 6 days measured every day of compound dosing and day 7 of post last dose. The series is classed as functional, organism-based.
The target of series [11] is T1, Phosphatidylinositol 4,5-bisphosphate 3-kinase catalytic subunit delta isoform (Mus musculus) (UniProt O35904).
T1 sequence (whole entry): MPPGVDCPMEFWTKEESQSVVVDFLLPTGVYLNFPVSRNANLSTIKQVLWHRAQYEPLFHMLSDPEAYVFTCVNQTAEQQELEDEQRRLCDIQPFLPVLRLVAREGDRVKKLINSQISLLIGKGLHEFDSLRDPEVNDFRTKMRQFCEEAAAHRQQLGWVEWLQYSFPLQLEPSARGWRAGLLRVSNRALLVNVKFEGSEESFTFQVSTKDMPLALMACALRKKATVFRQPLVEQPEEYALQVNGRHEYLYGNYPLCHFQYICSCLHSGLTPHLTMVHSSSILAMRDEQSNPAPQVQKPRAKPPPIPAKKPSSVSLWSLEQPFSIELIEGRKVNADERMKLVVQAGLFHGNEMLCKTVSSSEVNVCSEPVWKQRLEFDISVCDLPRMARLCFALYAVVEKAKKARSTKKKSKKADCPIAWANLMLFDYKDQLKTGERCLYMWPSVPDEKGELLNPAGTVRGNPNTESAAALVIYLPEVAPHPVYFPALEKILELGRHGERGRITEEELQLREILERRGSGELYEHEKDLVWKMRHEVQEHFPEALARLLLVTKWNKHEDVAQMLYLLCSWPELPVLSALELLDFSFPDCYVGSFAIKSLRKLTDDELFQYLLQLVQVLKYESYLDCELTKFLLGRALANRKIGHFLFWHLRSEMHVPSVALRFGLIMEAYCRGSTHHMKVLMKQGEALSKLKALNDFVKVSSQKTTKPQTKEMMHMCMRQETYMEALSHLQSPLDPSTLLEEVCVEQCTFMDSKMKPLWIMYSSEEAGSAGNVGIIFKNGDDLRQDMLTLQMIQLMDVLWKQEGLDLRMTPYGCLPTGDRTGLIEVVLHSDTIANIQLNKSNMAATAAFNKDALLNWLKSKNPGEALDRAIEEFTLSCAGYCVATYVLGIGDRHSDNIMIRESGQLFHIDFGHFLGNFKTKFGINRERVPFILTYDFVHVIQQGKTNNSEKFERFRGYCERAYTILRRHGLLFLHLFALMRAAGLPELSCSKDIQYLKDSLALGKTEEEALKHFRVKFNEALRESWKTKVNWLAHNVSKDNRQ
Kind of series: Inhibition of PI3Kdelta in LPS or anti-CD40/IL4-stimulated mouse B cells assessed as decrease in IgG response in presence of mTOR inhibitor rapamycin relative to vehicle-treated control. The series is classed as cell-based.

Series [12] deals with Rattus norvegicus. Kind of series: Antiarthritic activity in type 2 collagen-induced Lewis rat arthritis model assessed as reduction in bone resorption in ankle at 60 mg/kg, po administered every 12 hrs for 16 days measured on day 17 of post last dose by toluidine blue staining-based assay. The series is classed as functional, organism-based.
Series [13] concerns the target T1, Phosphatidylinositol 4,5-bisphosphate 3-kinase catalytic subunit delta isoform (Mus musculus). In words: Inhibition of PI3Kdelta in LPS or anti-CD40/IL4-stimulated mouse B cells assessed as decrease in IgE response in presence of mTOR inhibitor rapamycin. The series is classed as cell-based.
Series [14] is described as follows: Toxicity in complete freund's adjuvant-induced intrathecally dosed Lewis rat arthritis model assessed as body weight loss at 10 to 60 mg/kg, administered intrathecally on day 8 to 20 post arthritis induction measured every second day of compound dosing. The series is classed as organism-based. The settings on record: in vivo, icv_or_intrathecal.
Series [15] relates to Rattus norvegicus. Kind of series: Antiarthritic activity in type 2 collagen-induced po dosed Lewis rat arthritis model assessed as reduction in cartilage damage in knee administered every 12 hrs for 16 days measured on day 17 of post last dose by toluidine blue staining-based assay. The series is classed as functional, organism-based.
The subject of series [16] is Rattus norvegicus. Kind of series: Antiarthritic activity in complete freund's adjuvant-induced intrathecally dosed Lewis rat arthritis model assessed as reduction in paw volume administered on day 8 to 20 post arthritis induction measured every second day of compound dosing by water displacement plethysmometry. The series is classed as functional, organism-based.
The subject of series [17] is Rattus norvegicus. In words: Antiarthritic activity in type 2 collagen-induced po dosed Lewis rat arthritis model assessed as reduction in bone resorption in knee administered every 12 hrs for 16 days measured on day 17 of post last dose by toluidine blue staining-based assay. The series is classed as functional, organism-based.
Series [18] is filed under the species Mus musculus. Kind of series: Inhibition of TNP-Ficoll or TNP-KHL-stimulated IgG3 response in mouse in presence of mTOR inhibitor rapamycin by ELISA relative to vehicle-treated control. The series is classed as functional.
In series [19] the test system is Rattus norvegicus. Kind of series: Antiarthritic activity in collagen-induced Lewis rat arthritis model assessed as reduction in ankle joint swelling administered for 6 days post arthritis induction measured every day during compound dosing and day 7 of post last dose in presence of mTOR inhibitor rapamycin. The series is classed as functional.
The test system of series [20] is Rattus norvegicus. Kind of series: Antiarthritic activity in type 2 collagen-induced Lewis rat arthritis model assessed as reduction in cartilage damage in ankle at 60 mg/kg, po administered every 12 hrs for 16 days measured on day 17 of post last dose by toluidine blue staining-based assay. The series is classed as functional, organism-based.

`CC(=O)Nc1nc2ccc(-c3nn(Cc4cc5cccc(C)c5c(=O)n4-c4ccccc4C)c4ncnc(N)c34)cc2s1`: the Activity with Rattus norvegicus [1] was 86%; with Rattus norvegicus [4], 75%; in the series with Rattus norvegicus [5], 87%; in the series on Rattus norvegicus [7], “Dose-dependent effect”; in series [14] it was “Toxic”; with Rattus norvegicus [15], “Dose-dependent effect”. Moreover, the Activity result with Rattus norvegicus [16] and in the series on Rattus norvegicus [17] was “Dose-dependent effect” each time. The “fold change (FC)” value in the series on Mus musculus [2] is 0.8; in the series with Mus musculus [3], 0.6; in the series with Mus musculus [6] it was 1.4. For the same molecule, the outcome in the series with Rattus norvegicus [8], in the series on Rattus norvegicus [9], in the series on Rattus norvegicus [10], in the series on Rattus norvegicus [12], in the series with Rattus norvegicus [19] and in the series with Rattus norvegicus [20] was Active. The inhibition result (in series [11]; in series [13]; in the series filed under Mus musculus [18]) was “Active” in each case.
